Consider seven compounds from paper PMC9687798, “Atypical Substrates of the Organic Cation Transporter 1” (Biomolecules, 2022).

Values joined by “and” are separate entries in the source; they are usually repeats but may differ in a detail not shown here. Equal entries are not always repeated.

Data set [1] deals with T1, human OCT1*1 (wild-type) (Homo sapiens, UniProt O15245).
T1 sequence (O15245 1-554): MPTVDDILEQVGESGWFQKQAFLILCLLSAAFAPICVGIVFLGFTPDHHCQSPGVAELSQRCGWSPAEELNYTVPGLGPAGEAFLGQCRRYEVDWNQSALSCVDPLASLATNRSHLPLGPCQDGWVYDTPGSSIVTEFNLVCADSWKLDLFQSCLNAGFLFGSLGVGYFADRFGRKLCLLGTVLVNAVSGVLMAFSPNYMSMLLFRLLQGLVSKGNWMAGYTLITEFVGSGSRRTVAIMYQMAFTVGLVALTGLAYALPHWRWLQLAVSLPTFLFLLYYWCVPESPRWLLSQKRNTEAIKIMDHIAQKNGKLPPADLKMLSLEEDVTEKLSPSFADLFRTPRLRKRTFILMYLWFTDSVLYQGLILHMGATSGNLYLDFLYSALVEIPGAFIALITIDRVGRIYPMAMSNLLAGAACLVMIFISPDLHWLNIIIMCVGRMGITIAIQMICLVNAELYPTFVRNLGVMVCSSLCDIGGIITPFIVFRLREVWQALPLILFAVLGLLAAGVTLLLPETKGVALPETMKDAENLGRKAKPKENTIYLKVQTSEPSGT
The data set can be described thus: Cellular uptake ratio, OCT1-overexpressing HEK293 cells vs empty vector. The class given is cell-based. A digest of the protocol: (§1)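 Flp-In HEK293 cells stably expressing transporter, or empty pcDNA5/FRT vector as control, incubated at 37 °C in HBSS with 10 mM HEPES, pH 7.4, with substrate. Uptake quantified by LC-MS with internal standard and normalised to total protein. Ratio = total uptake in transporter cells divided by that in empty-vector cells.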

Data set [2] has as its target T2, OCT3 (Homo sapiens, UniProt O75751).
T2 construct: expressed in transfected cells; host or cells: HEK293, stably transfected; gift from Dr. Koepsell and Dr. Gorbulev (University of Würzburg)
T2 sequence (O75751 1-556): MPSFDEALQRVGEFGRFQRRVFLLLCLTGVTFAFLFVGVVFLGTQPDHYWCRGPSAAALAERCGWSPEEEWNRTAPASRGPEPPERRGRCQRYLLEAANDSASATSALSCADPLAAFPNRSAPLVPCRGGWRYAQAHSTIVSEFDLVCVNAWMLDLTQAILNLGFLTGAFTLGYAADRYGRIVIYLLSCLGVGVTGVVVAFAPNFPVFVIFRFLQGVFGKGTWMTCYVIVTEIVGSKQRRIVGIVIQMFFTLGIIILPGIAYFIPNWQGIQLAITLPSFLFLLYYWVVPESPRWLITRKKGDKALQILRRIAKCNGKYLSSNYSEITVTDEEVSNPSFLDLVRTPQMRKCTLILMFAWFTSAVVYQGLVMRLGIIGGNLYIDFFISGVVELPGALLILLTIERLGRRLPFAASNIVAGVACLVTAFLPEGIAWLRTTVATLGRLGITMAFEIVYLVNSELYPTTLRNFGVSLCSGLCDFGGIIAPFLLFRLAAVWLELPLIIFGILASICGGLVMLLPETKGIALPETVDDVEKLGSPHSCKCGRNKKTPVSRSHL
The data set can be described thus: Cellular uptake ratio, OCT3-overexpressing HEK293 cells vs empty vector. Particulars: for OCT3 transport category: based on ratio uptake data at 1 µM. It counts as cell-based. A digest of the protocol: as §1

The target of data set [3] is T3, wild-type human OCT2 (Homo sapiens, UniProt O15244).
T3 sequence (O15244 1-555): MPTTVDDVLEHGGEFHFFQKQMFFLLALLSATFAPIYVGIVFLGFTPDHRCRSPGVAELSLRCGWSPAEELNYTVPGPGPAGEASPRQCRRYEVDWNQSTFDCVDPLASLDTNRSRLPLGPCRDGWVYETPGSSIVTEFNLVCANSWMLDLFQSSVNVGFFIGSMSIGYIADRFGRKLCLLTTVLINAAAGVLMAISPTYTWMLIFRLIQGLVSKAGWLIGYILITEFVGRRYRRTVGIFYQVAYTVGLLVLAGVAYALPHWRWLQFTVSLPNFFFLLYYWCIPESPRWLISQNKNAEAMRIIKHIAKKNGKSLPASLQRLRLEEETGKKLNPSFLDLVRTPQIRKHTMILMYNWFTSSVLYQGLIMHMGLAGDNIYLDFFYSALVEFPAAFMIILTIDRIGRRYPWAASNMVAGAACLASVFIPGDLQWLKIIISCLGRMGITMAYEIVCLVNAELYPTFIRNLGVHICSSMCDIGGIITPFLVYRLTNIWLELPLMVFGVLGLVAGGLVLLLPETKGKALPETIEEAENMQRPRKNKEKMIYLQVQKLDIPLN
The data set can be described thus: Cellular uptake ratio, OCT2-overexpressing HEK293 cells vs empty vector. The class given is cell-based. Particulars: for uptake by OCT2 (normalised to empty vector): 1 µM and 100 µM substance; for OCT2 transport category: based on ratio uptake data at 1 µM. A digest of the protocol: as §1

Data set [4] has as its target T1, human OCT1*1 (wild-type). The data set can be described thus: Concentration-dependent uptake (transport kinetics) in HEK293 cells overexpressing OCT1 wild-type. Particulars: for Clint (±SEM): intrinsic clearance = ratio of Vmax and KM, OCT1 wild-type; for Vmax (±SEM): net uptake (OCT1 minus empty vector), HEK293, 0.1-1000 µM substrate, Michaelis–Menten; for OCT1 substrate classification from concentration-dependent uptake: good >5, poor 1–5, non-substrate <1 µL/mg protein/min or uptake not above empty vector.

The mark [5] stands for this setting: based on ratio uptake data at 1 µM.
Where [6] appears, read: based on ratio uptake data at 100 µM (footnote *).

As to `Nc1nc(=O)n([C@@H]2CS[C@H](CO)O2)cc1F` [Emtricitabine, emtricitabine], the “uptake ratio by OCT1 (normalised to empty vector)” value in data set [1] (1 µM and 100 µM substance) was “around 4”. Also, in data set [2] (1 µM and 100 µM substance), the “uptake ratio by OCT3 (normalised to empty vector)” value is recorded as “below 2”. Moreover, the “uptake by OCT2 (normalised to empty vector)” value in data set [3] is “cellular uptake by OCT2 was observed”. The “Clint (±SEM)” value was found to be 6.15 ± 2.82 µL/mg Protein/min in data set [4] and 6.15 µL/mg Protein/min in data set [4] (listed as emtricitabine).
`N[C@@H](Cc1ccc(O)c(O)c1)C(=O)O` [Levodopa, levodopa]: the OCT1 transport category in data set [1] (setting [5]) is 0 (no transport by OCT1, OCT2, and OCT3 occurred (i.e., no kinetic parameters or uptake ratio <2 without significance)). Moreover, the OCT3 transport category in data set [2] is 0 (no transport by OCT1, OCT2, and OCT3 occurred (i.e., no kinetic parameters or uptake ratio <2 without significance)). Moreover, in data set [3], the OCT2 transport category is 0 (no transport by OCT1, OCT2, and OCT3 occurred (i.e., no kinetic parameters or uptake ratio <2 without significance)). Moreover, the “Clint (±SEM)” value in data set [4] came out at 13.8 ± 8.6 µL/mg Protein/min; in data set [4] (listed as levodopa) it was 13.8 µL/mg Protein/min. In addition, the “Vmax (±SEM)” value in data set [4] was 4993 ± 884 pmol/mg Protein/min.
With `N=C(N)c1ccc(OCCCCCOc2ccc(C(=N)N)cc2)cc1` [Pentamidine, pentamidine], the OCT1 transport category entry in data set [1] (setting [5]) is on record as “+/− (poor transport with a Clint < 5 or ratio between 1–2 with statistical significance (p < 0.05))”. Moreover, the OCT3 transport category in data set [2] was 0 (no transport by OCT1, OCT2, and OCT3 occurred (i.e., no kinetic parameters or uptake ratio <2 without significance)). Besides, the OCT2 transport category in data set [3] is 0 (no transport by OCT1, OCT2, and OCT3 occurred (i.e., no kinetic parameters or uptake ratio <2 without significance)). For the same compound, in data set [4], the “OCT1 substrate classification from concentration-dependent uptake” value (from here on “OCT1 substrate classification”) is listed as “poor substrate of OCT1”; the “Clint (±SEM)” value is 1.15 µL/mg Protein/min and 1.15 ± 1.75 µL/mg Protein/min; the “Vmax (±SEM)” value worked out at 143 ± 63.1 pmol/mg Protein/min.
Regarding `CCCCC[C@H](O)/C=C/[C@H]1[C@H](O)CC(=O)[C@@H]1C/C=C\CCCC(=O)O` [Prostaglandin E2, prostaglandin E2], the “uptake ratio of prostaglandins by OCT1 wild-type” value in data set [1] (1, 10 and 100 µM, 120 s) is reported as “strongly increased uptake by OCT1 at higher concentrations”. The OCT1 transport category entry in data set [1] (setting [6]) is “+ (good substrates of OCTs when the intrinsic clearance is between 5–15 or the ratio is 2–10)”. Further, in data set [4], the “OCT1 substrate classification” value is on record as “(poor) substrates of OCT1”, the “Clint (±SEM)” value is recorded as 3.50 ± 3.42 µL/mg Protein/min and the “Vmax (±SEM)” value worked out at 4119 pmol/mg Protein/min. The “Clint (±SEM)” value in data set [4] (listed as prostaglandin E2) was 3.5 µL/mg Protein/min.
Turning to `CCCCC[C@H](O)/C=C/[C@@H]1[C@@H](C/C=C\CCCC(=O)O)[C@@H](O)C[C@H]1O` [Prostaglandin F2α, prostaglandin F2α], the OCT1 transport category result in data set [1] (setting [6]) is given as “+ (good substrates of OCTs when the intrinsic clearance is between 5–15 or the ratio is 2–10)”. Moreover, in data set [4], the “OCT1 substrate classification” value is “(poor) substrates of OCT1”, the “Clint (±SEM)” value was 1.40 ± 1.09 µL/mg Protein/min and the “Vmax (±SEM)” value is 1007 pmol/mg Protein/min. Further, the “Clint (±SEM)” value in data set [4] (listed as prostaglandin F2α) is recorded as 1.4 µL/mg Protein/min.
Consider `COc1cc(Cc2cnc(N)nc2N)cc(OC)c1OC` [Trimethoprim, trimethoprim], for which the OCT1 transport category result in data set [1] (setting [5]) is given as “+ (good substrates of OCTs when the intrinsic clearance is between 5–15 or the ratio is 2–10)”. The OCT3 transport category in data set [2] was 0 (no transport by OCT1, OCT2, and OCT3 occurred (i.e., no kinetic parameters or uptake ratio <2 without significance)). In data set [3], the “uptake by OCT2 (normalised to empty vector)” value is given as “only minimal” and the OCT2 transport category entry was “+/− (poor transport with a Clint < 5 or ratio between 1–2 with statistical significance (p < 0.05))”. Besides, in data set [4], the “Vmax (±SEM)” value came to 300 ± 16.9 pmol/mg Protein/min.
On to `Nc1ccn([C@H]2CC[C@@H](CO)O2)c(=O)n1` [Zalcitabine, zalcitabine], for which, in data set [1] (setting [5]), the OCT1 transport category result is on record as “+ (good substrates of OCTs when the intrinsic clearance is between 5–15 or the ratio is 2–10)”. Further, the OCT3 transport category in data set [2] is 0 (no transport by OCT1, OCT2, and OCT3 occurred (i.e., no kinetic parameters or uptake ratio <2 without significance)). For the same compound, in data set [3], the “uptake by OCT2 (normalised to empty vector)” value is “cellular uptake by OCT2 was observed” and the OCT2 transport category result is “+ (good substrates of OCTs when the intrinsic clearance is between 5–15 or the ratio is 2–10)”. Also, in data set [4], the “OCT1 substrate classification” value was “poor transport efficiency” and the “Clint (±SEM)” value is listed as 2.57 ± 0.65 µL/mg Protein/min.
